Experimental data reported in paper PMC7346179, “Fe Porphyrin-Based SOD Mimic and Redox-Active Compound, (OH)FeTnHex-2-PyP^4+, in a Rodent Ischemic Stroke (MCAO) Model: Efficacy and Pharmacokinetics as Compared to Its Mn Analogue, (H2O)MnTnHex-2-PyP^5+” (Antioxidants, 2020).
Several values for one entry are separate records, joined by “and”; a condition that tells them apart may be missing. Equal entries are not always repeated.

Legend:
mice [1] = conditions: mouse, in vivo, cited from earlier work
[2] = 2-h PK study in rats that underwent MCAO; format: in vivo
Protocol: Samples were prepared as described in [10] with modifications to accommodate the small tissue sizes and enhance the detection sensitivity. Quantitative liquid chromatography electrospray-ionization tandem mass spectrometry (LCMS/MS) analysis was performed on a Shimadzu 20A series HPLC (LC)-Applied Biosystems/MDS Sciex API 3200 QTrap or API 4000 QTrap tandem-mass spectrometer (MS/MS) as described earlier. The use of heptafluorobutyric acid (HFBA) mobile phase modifier as an ion-pairing agent increases the overall lipophilicity and volatility, which increases the retention and ionization efficiency of the analytes, affording an abundance of HFBA-associated ions. […] (OH)FeTnBuOE-2-PyP^4+ was prepared as described for other Fe(III) N-alkylpyridylporphyrins and analogous (H2O)MnTnBuOE-2-PyP^5+ [13, 16]. The solvents employed were: A = 95:5 H2O:MeCN (0.1% HFBA); B = MeCN (0.1% HFBA). […] With the chosen solvent system, all four atropoisomers collapsed into a single peak, enhancing the sensitivity of the method to as low as 0.5 nM (nanomoles per L of tissue homogenate). Analyses were performed using a Phenomenex Luna C18 guard cartridge (ID × L, 2 × 4 mm) only. […] Their structures are also shown. […] The response was calculated as the ratio between the standard peak area and the internal standard peak area. Another possible cause for the failure of therapeutics in stroke may be their slow accumulation in the brain, i.e., not being there in time to prevent the burst of reactive species and rapid activation of transcription factors, which perpetuate oxidative stress. We therefore conducted short-term 2-h PK to evaluate how fast post-MCAO our drug gets into the brain. Three rats per compound were subjected to 90 min of transient right MCAO as reported. The first dose of 0.225 mg/kg was given IV via the […] at 5 min after ischemia/reperfusion. The second dose of 0.225 mg/kg was given SC at 30 min after reperfusion. Blood was collected at 2 h and plasma harvested. Rats were perfused with heparin saline (2000 IU/500 mL) until no reddish fluid came out from the right atrium. Then, the liver, and left and right brain were collected and placed on dry ice and stored at -20 °C. Plasma, liver, and brain were analyzed by LCMS/MS.

rat MCAO stroke model = assay: 7-day rat MCAO efficacy study; format: in vivo, rats; conditions: 0.225 mg/kg twice per day 7 days
Protocol: The 7-day rat MCAO study was done as described in [9]. The 250–275 g Wistar rats were used as another species is a requirement for preclinical stroke research. The duration of the right MCAO was 90 min. […] The first dose was given IV slowly via the […] at 5 min after ischemia/reperfusion. The following doses were given SC. At day 7 post-injury, a person blinded to the treatment groups assessed the neurological deficit and then brains were harvested for infarct volume measurements.

[3] = cited from earlier work
mice [4] = conditions: cited from earlier work
SOD-deficient E. coli = conditions: higher than MnHex; cited from earlier work
[5] = 7-day PK study in healthy rats; format: in vivo
Protocol: Samples were prepared as described in [10] with modifications to accommodate the small tissue sizes and enhance the detection sensitivity. Quantitative liquid chromatography electrospray-ionization tandem mass spectrometry (LCMS/MS) analysis was performed on a Shimadzu 20A series HPLC (LC)-Applied Biosystems/MDS Sciex API 3200 QTrap or API 4000 QTrap tandem-mass spectrometer (MS/MS) as described earlier. The use of heptafluorobutyric acid (HFBA) mobile phase modifier as an ion-pairing agent increases the overall lipophilicity and volatility, which increases the retention and ionization efficiency of the analytes, affording an abundance of HFBA-associated ions. […] (OH)FeTnBuOE-2-PyP^4+ was prepared as described for other Fe(III) N-alkylpyridylporphyrins and analogous (H2O)MnTnBuOE-2-PyP^5+ [13, 16]. The solvents employed were: A = 95:5 H2O:MeCN (0.1% HFBA); B = MeCN (0.1% HFBA). […] With the chosen solvent system, all four atropoisomers collapsed into a single peak, enhancing the sensitivity of the method to as low as 0.5 nM (nanomoles per L of tissue homogenate). Analyses were performed using a Phenomenex Luna C18 guard cartridge (ID × L, 2 × 4 mm) only. […] Their structures are also shown. […] The response was calculated as the ratio between the standard peak area and the internal standard peak area. We conducted a 7-day rat PK study under conditions identical to those that afforded the therapeutic efficacy of MnTnHex-2-PyP^5+ in an earlier study. […] Afterwards, blood/plasma samples were collected before injection and at 2 h after 24 h-injections (every second injection). Liver and brains were taken for analysis 12 h after the last injection. Three rats were used per compound. After the single (first) SC injection, we obtained a prototypical PK profile observed in the case of all Mn(III) ortho […] In contrast, although similarly absorbed after SC injection, the […] Our understanding is that the “elimination” process is actually a fast distribution/retention into/by the liver, kidney, and spleen, a multi-compartmental process responsible for early decay of the plasma concentration, observed for all Mn porphyrin analogs investigated.

[6] = healthy rats, SC 0.225 mg/kg BID 7 days, 12 h after last injection
[7] = healthy rats, SC 0.225 mg/kg BID 7 days, WinNonlin simulation

monohydroxo Fe(III) meso-tetrakis(N-n-hexylpyridinium-2yl)porphyrin [FeHex]
blood pressure drop (mice [1]; ip, 10 mg/kg): does not | arterial hypotension in experimental animals (mice [1]): does not cause arterial hypotension | level in injured (right) brain hemisphere ([2]; rats after 90-min MCAO, 0.225 mg/kg IV + 0.225 mg/kg SC, 2 h after reperfusion): ~ 55 nM | liver level relative to MnHex ([2]; rats after MCAO, 2 h): lower in the liver | plasma level relative to MnHex ([2]; rats after MCAO, 2 h): higher in plasma | p, cortex infarct volume vs vehicle (rat MCAO stroke model): 0.48 | p, neuroscore vs vehicle (rat MCAO stroke model): 0.28 | p, subcortex infarct volume vs vehicle (rat MCAO stroke model): 0.11 | p, total infarct volume vs vehicle (rat MCAO stroke model): 0.31 | neurological deficit (neuroscore and infarct volume) (rat MCAO stroke model; first dose IV, then SC): only slightly, but insignificantly, improved | log kcat(O2^•−), log of rate constant for catalysis of O2^•− dismutation [3]: 7.53 | toxicity to mice relative to MnHex (mice [4]): less toxic to mice | toxicity / death of mice (mice [4]; mice, 5 mg/kg IP injection): no toxicity | efficacy in SOD-deficient E. coli model relative to MnHex (SOD-deficient E. coli): ~ 2 orders of magnitude | plasma exposure (AUC) relative to MnHex ([5]; 7-day twice-daily treatment of rats): more than 2 fold | brain concentration at end of 7-day treatment [5, 6]: 0.024 µM | end-of-treatment 7-day liver tissue level [5, 6]: 0.04 µM | average plasma concentration (Caver) [5, 7]: 0.16 µM | plasma AUC [5, 7]: 26.9 µM·h | Cmax ([5]; healthy rats, SC 0.225 mg/kg BID 7 days, WinNonlin simulation, read-out: Cmax at steady state, plasma): 0.21 µM | elimination from plasma after single (first) SC injection ([5]; healthy rats, SC 0.225 mg/kg, first 12 h): much slower elimination from the plasma | plasma half-life ([5]; healthy rats, SC 0.225 mg/kg, estimated from simulation, 0.225 mg/kg): 23 h and ~ 23 h
